According to patent US12018021B2 (UCB Biopharma SRL, priority 2018, dated 2024):

What follows are molecules tested against IgE-Tb / FcεRIα-Y131A-AF488 (Homo sapiens, UniProt P01854) (assay: IgE-Tb / FcεRIα-Y131A-AF488 FRET assay (protocol for examples 1 to 233)). Details: examples 1 to 233: 5 nM IgE-Tb, 25 nM FcεRIα-Y131A-AF488, incubated 2 hours at room temperature; read-out: Y131A FRET IC50 range.
Assay type: binding
Summary of the method: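 TR-FRET displacement with 5 nM IgE-Tb and 25 nM FcεRIα-Y131A-AF488 (final), 10-point 3-fold compound dilutions from typically 10 μM top, 2% DMSO, 2 h at room temperature. Excitation 330 nm, 520/495 nm emission ratio; MIN set with 200 nM unlabelled FcεRIα. IC50 from four-parameter logistic fit of percent inhibition.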

Sequence of IgE-Tb / FcεRIα-Y131A-AF488 (P01854 1-427 limits assumed, stated change not applied): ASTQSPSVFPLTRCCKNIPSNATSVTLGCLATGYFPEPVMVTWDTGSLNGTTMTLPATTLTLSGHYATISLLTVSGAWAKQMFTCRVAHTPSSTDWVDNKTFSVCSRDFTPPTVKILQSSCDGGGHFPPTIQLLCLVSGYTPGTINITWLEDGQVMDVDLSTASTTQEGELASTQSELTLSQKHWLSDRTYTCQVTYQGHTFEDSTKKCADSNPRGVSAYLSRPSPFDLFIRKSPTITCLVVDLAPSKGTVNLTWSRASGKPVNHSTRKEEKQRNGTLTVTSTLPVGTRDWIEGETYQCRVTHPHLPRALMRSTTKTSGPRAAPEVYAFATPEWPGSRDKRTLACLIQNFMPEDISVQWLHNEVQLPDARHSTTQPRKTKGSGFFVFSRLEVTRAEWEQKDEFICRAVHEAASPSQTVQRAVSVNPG

Question: How did the IC50 turn out when CCN(C)c1c(NC2CCc3sc(NC(=O)C4CC4)c(C(=O)NCC4CC4)c3C2)c(=O)c1=O (stereo not drawn) [Example 195, 2-(Cyclopropanecarbonylamino)-N-(cyclopropylmethyl)-5-[[2-[ethyl(methyl)amino]-3,4-dioxo-cyclobuten-1-yl]amino]-4,5,6,7-tetrahydrobenzothiophene-3-carboxamide] was run?
Answer: The IC50 was under 1000 nM.

Question: Which IC50 does the source give for O=C(NCC1CC1)c1c(NC(=O)C2CC2)sc2c1C[C@@H](n1cnnc1Nc1ccc[n+]([O-])c1)CC2 [Example 125, (5S)-2-(Cyclopropanecarbonylamino)-N-(cyclopropylmethyl)-5-[3-[(1-oxidopyridin-1-ium-3-yl)amino]-1,2,4-triazol-4-yl]-4,5,6,7-tetrahydrobenzothiophene-3-carboxamide] here?
Answer: The IC50 was under 1000 nM.

Question: With Cc1ccc(NC(=C[N+](=O)[O-])NC2CCc3sc(NC(=O)C4CC4)c(C(=O)NCC4CC4)c3C2)cc1 (stereo not drawn) [Example 135, 2-(cyclopropanecarbonylamino)-N-(cyclopropylmethyl)-5-[[1-(4-methylanilino)-2-nitro-vinyl]amino]-4,5,6,7-tetrahydrobenzothiophene-3-carboxamide] as the molecule, how does the IC50 read?
Answer: Its IC50 is under 1000 nM.

Question: O=C1NCc2cc(NC(=O)C3CCc4sc(NC(=O)C5CC5)c(C(=O)NCC5CC5)c4C3)ccc21 (stereo not drawn) [Example 41, 2-(Cyclopropanecarbonylamino)-N3-(cyclopropylmethyl)-N5-(1-oxoisoindolin-5-yl)-4,5,6,7-tetrahydrobenzothiophene-3,5-dicarboxamide] was tested. Which IC50 did it give?
Answer: The IC50 was under 1000 nM.

Question: Cc1cc(Nc2nncn2[C@H]2CCc3sc(NC(=O)C4CC4)c(S(=O)(=O)NCC4CC4)c3C2)n(C)n1 [Example 215, N-[(5S)-3-(cyclopropylmethylsulfamoyl)-5-[3-[(2,5-dimethylpyrazol-3-yl)amino]-1,2,4-triazol-4-yl]-4,5,6,7-tetrahydrobenzothiophen-2-yl]cyclopropanecarboxamide] was tested. Which IC50 did it give?
Answer: The IC50 was under 1000 nM.

Question: How did the IC50 turn out when Cc1nnc(-c2ncn([C@H]3CCc4sc(NC(=O)C5CC5)c(C(=O)NCC5CC5)c4C3)c2N)o1 [Example 216, (5S)-5-[5-amino-4-(5-methyl-1,3,4-oxadiazol-2-yl)imidazol-1-yl]-2-(cyclopropanecarbonylamino)-N-(cyclopropylmethyl)-4,5,6,7-tetrahydrobenzothiophene-3-carboxamide] was run?
Answer: The IC50 was under 1000 nM.

Question: How did the IC50 turn out when Cc1nnc(-c2ccc(N[C@H]3CCc4sc(NC(=O)C5CC5)c(C(=O)NCC5CC5)c4C3)cn2)o1 [Example 159, (5S)-2-(cyclopropanecarbonylamino)-N-(cyclopropylmethyl)-5-[[6-(5-methyl-1,3,4-oxadiazol-2-yl)-3-pyridyl]amino]-4,5,6,7-tetrahydrobenzothiophene-3-carboxamide] was run?
Answer: The IC50 was under 1000 nM.

Question: Which IC50 does the source give for CC1CCN(C(=O)c2c(NC(=O)C3CC3)sc3c2CC(NS(C)(=O)=O)CC3)C1 (stereo not drawn) [Example 211, N-[5-(Methanesulfonamido)-3-(3-methylpyrrolidine-1-carbonyl)-4,5,6,7-tetrahydrobenzothiophen-2-yl]cyclopropanecarboxamide] here?
Answer: Its IC50 is 1000 to 10000 nM.

Question: Which IC50 does the source give for Cc1ccc(-c2cnc(C3CCc4sc(NC(=O)C5CC5)c(C(=O)NCC5CC5)c4C3)[nH]2)cc1 (stereo not drawn) [Example 63, 2-(Cyclopropanecarbonylamino)-N-(cyclopropylmethyl)-5-[5-(p-tolyl)-1H-imidazol-2-yl]-4,5,6,7-tetrahydrobenzothiophene-3-carboxamide] here?
Answer: The IC50 was under 1000 nM.

Question: With CCCNS(=O)(=O)c1c(NC(=O)C2CC2)sc2c1CC(NC(=S)Nc1ccc(OC)cc1)CC2 (stereo not drawn) [Example 25, N-[5-[(4-Methoxyphenyl)carbamothioylamino]-3-(propylsulfamoyl)-4,5,6,7-tetrahydrobenzothiophen-2-yl]cyclopropanecarboxamide] as the molecule, how does the IC50 read?
Answer: Its IC50 is under 1000 nM.

Question: With CC1=NN(c2cccc(NC(=O)C3CCc4sc(NC(=O)C5CC5)c(C(=O)NCC5CC5)c4C3)c2)C(=O)C1 (stereo not drawn) [Example 43, 2-(Cyclopropanecarbonylamino)-N3-(cyclopropylmethyl)-N5-[3-(3-methyl-5-oxo-4H-pyrazol-1-yl)phenyl]-4,5,6,7-tetrahydrobenzothiophene-3,5-dicarboxamide] as the molecule, how does the IC50 read?
Answer: Its IC50 is under 1000 nM.

Question: How did the IC50 turn out when Cc1cc(Nc2nncn2[C@H]2CCc3sc(NC(=O)C4CC4)c(C(=O)NCC4CC4)c3C2)n(C2CC2)n1 [Example 226, (5S)-2-(cyclopropanecarbonylamino)-N-(cyclopropylmethyl)-5-[3-[(2-cyclopropyl-5-methyl-pyrazol-3-yl)amino]-1,2,4-triazol-4-yl]-4,5,6,7-tetrahydrobenzothiophene-3-carboxamide] was run?
Answer: Its IC50 is under 1000 nM.

Question: COCC(=O)N1CCc2sc(NC(=O)C3CC3)c(C(=O)NCC3CC3)c2C1 [Example 8, 2-(Cyclopropanecarbonylamino)-N-(cyclopropylmethyl)-5-(2-methoxyacetyl)-6,7-dihydro-4H-thieno[3,2-c]pyridine-3-carboxamide] was tested. Which IC50 did it give?
Answer: Its IC50 is 10000 to 50000 nM.

Question: How did the IC50 turn out when O=C(NCC1CC1)c1c(NC(=O)C2CC2)sc2c1CC(C(=O)Nc1cccc3[nH]ncc13)CC2 (stereo not drawn) [Example 44, 2-(Cyclopropanecarbonylamino)-N3-(cyclopropylmethyl)-N5-(1H-indazol-4-yl)-4,5,6,7-tetrahydrobenzothiophene-3,5-dicarboxamide; 2,2,2-trifluoroacetic acid] was run?
Answer: Its IC50 is under 1000 nM.

Question: How did the IC50 turn out when N#CN=C(Nc1ccccc1)NC1CCc2sc(NC(=O)C3CC3)c(C(=O)NCC3CC3)c2C1 (stereo not drawn) [Example 110, 5-[[N′-Cyano-N-phenyl-carbamimidoyl]amino]-2-(cyclopropanecarbonylamino)-N-(cyclopropylmethyl)-4,5,6,7-tetrahydrobenzothiophene-3-carboxamide] was run?
Answer: The IC50 was under 1000 nM.

Question: For CNC(=O)c1c(NC(=O)C2CC2)sc2c1CCSC2 [Example 1, 2-(Cyclopropanecarbonylamino)-N-methyl-5,7-dihydro-4H-thieno[2,3-c]thiopyran-3-carboxamide], which IC50 is on record?
Answer: Its IC50 is 1000 to 10000 nM.

Question: N#CC1CCCc2c1sc(NC(=O)C1CC1)c2C(=O)NCC1CC1 (stereo not drawn) [Example 65, 7-Cyano-2-(cyclopropanecarbonylamino)-N-(cyclopropylmethyl)-4,5,6,7-tetrahydrobenzothiophene-3-carboxamide] was tested. Which IC50 did it give?
Answer: The IC50 was 1000 to 10000 nM.

Question: For Cn1nc(C(F)(F)F)cc1Nc1nncn1[C@H]1CCc2sc(NC(=O)C3CC3)c(C(=O)NCC3CC3)c2C1 [Example 221, (5S)-2-(cyclopropanecarbonylamino)-N-(cyclopropylmethyl)-5-[3-[[2-methyl-5-(trifluoromethyl)pyrazol-3-yl]amino]-1,2,4-triazol-4-yl]-4,5,6,7-tetrahydrobenzothiophene-3-carboxamide], which IC50 is on record?
Answer: The IC50 was under 1000 nM.

Question: Which IC50 does the source give for O=C(NCC1CC1)c1c(NC(=O)C2CC2)sc2c1CC(Nc1noc(=O)[nH]1)CC2 (stereo not drawn) [Example 119, 2-(Cyclopropanecarbonylamino)-N-(cyclopropylmethyl)-5-[(5-oxo-4H-1,2,4-oxadiazol-3-yl)amino]-4,5,6,7-tetrahydrobenzothiophene-3-carboxamide] here?
Answer: The IC50 was under 1000 nM.

Question: CCn1nc(C)cc1Nc1nncn1[C@H]1CCc2sc(NC(=O)C3CC3)c(C(=O)NCC3CC3)c2C1 [Example 225, (5S)-2-(cyclopropanecarbonylamino)-N-(cyclopropylmethyl)-5-[3-[(2-ethyl-5-methyl-pyrazol-3-yl)amino]-1,2,4-triazol-4-yl]-4,5,6,7-tetrahydrobenzothiophene-3-carboxamide] was tested. Which IC50 did it give?
Answer: The IC50 was under 1000 nM.

Question: For O=C(NCC1CC1)c1c(NC(=O)C2CC2)sc2c1CC(C(=O)NCCc1ccc(O)cc1)CC2 (stereo not drawn) [Example 57, 2-(Cyclopropanecarbonylamino)-N3-(cyclopropylmethyl)-N5-[2-(4-hydroxyphenyl)ethyl]-4,5,6,7-tetrahydrobenzothiophene-3,5-dicarboxamide], which IC50 is on record?
Answer: Its IC50 is under 1000 nM.
